Some test systems named below: A549; HCC 2998; HCT-116; HT-29; IGROV-1; LOX IMVI; Malme-3M; NCI-H23; OVCAR-8; SF-539; SN12C; SW-620; U-251; NCI-H460; SK-MEL-28; SK-OV-3.
Holding throughout (test): DTP human tumour cell line panel, 48 h

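A five-concentration, 48-hour dose response in 96-well plates underlies each endpoint, interpolated linearly between surrounding concentrations. Abbreviation: GI50, concentration required for 50% inhibition of growth.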 Active and inactive are the calls of the source. No stated cut-off is given here; in the data, active = GI50 up to about 1.1 µM and inactive = higher.

Broadly, the GI50 is the concentration at which growth is held to half of that of the control. Consider `CNS(=O)(=O)NN(C)S(=O)(=O)c1ccc(Br)cc1`, for which the GI50 with A549, in the assay with HCC 2998, in the assay with HCT-116, in the assay with HT-29, with IGROV-1 and with LOX IMVI was > 100 µM (inactive) in each case. In addition, the GI50 in the assay with Malme-3M, in the assay on NCI-H23, with OVCAR-8, in the assay with SF-539, with SN12C and in the assay on SW-620 was > 100 µM (inactive) throughout. For the same compound, the GI50 with U-251 was 72.9 µM (inactive).

Consider `Cc1c(/C=N/NC(=O)c2cc(Br)cc(Br)c2O)c(=O)n(-c2ccccc2)n1C`, for which the GI50 in the assay with A549 is > 100 µM (inactive); in the assay with HCC 2998 it was > 100 µM (inactive); with HCT-116, 56.4 µM (inactive); in the assay with HT-29 it was 64.7 µM (inactive); in the assay with IGROV-1 it was 1.22 µM (inactive); with LOX IMVI it was 6.53 µM (inactive). The GI50 in the assay with Malme-3M was 67.3 µM (inactive); with NCI-H23, 77.3 µM (inactive); with NCI-H460, 39.2 µM (inactive); in the assay on OVCAR-8, 27.5 µM (inactive); with SF-539 it was 47 µM (inactive); in the assay on SK-MEL-28, 20.8 µM (inactive). Moreover, the GI50 in the assay on SK-OV-3 is > 100 µM (inactive); with SN12C it was 69.7 µM (inactive); with SW-620 it was 53.7 µM (inactive); in the assay with U-251, 69 µM (inactive).

As to `COC1=CC(=O)C2C(C1=O)[C@@H]1c3ccccc3OC(C)(C)[C@H]21` (some centres not stated), the GI50 with A549 was 70 µM (inactive); in the assay on HCC 2998, > 100 µM (inactive); in the assay on HCT-116, 16.2 µM (inactive); in the assay on HT-29 it was 28.1 µM (inactive); in the assay with IGROV-1, > 10 µM (inactive); in the assay with LOX IMVI it was 14.2 µM (inactive). In addition, the GI50 in the assay on Malme-3M is 18.9 µM (inactive); in the assay with NCI-H23 it was 17.5 µM (inactive); in the assay on NCI-H460, 60.5 µM (inactive); with OVCAR-8 it was 21.7 µM (inactive); in the assay on SF-539, 23.5 µM (inactive); with SK-MEL-28, 17.4 µM (inactive). Further, the values for the GI50 with SK-OV-3, with SW-620 and in the assay with U-251 were 90.4 µM (inactive), 23.6 µM (inactive) and 53.2 µM (inactive), respectively.

Turning to `NC(=O)C(=Cc1ccc(CP(=O)(O)O)cc1)C(N)=O`, the GI50 with A549, in the assay with HCC 2998, with HCT-116, in the assay on HT-29, in the assay on IGROV-1 and with LOX IMVI was > 100 µM (inactive) throughout. Also, the GI50 with Malme-3M, in the assay with NCI-H23, with NCI-H460, in the assay on OVCAR-8, with SF-539 and in the assay with SK-MEL-28 was > 100 µM (inactive) throughout. For the same compound, the GI50 in the assay with SK-OV-3, in the assay on SN12C, in the assay with SW-620 and in the assay with U-251 was > 100 µM (inactive) in each case.

With `O=C(CC1C(=O)Nc2ccccc2S1(=O)=O)Nc1cccc(Cl)c1` (configuration not stated), the GI50 is 20 µM (inactive) in the assay on A549; 18.2 µM (inactive) with HCC 2998; 18.2 µM (inactive) in the assay with HCT-116; 17.5 µM (inactive) with HT-29; 18.9 µM (inactive) in the assay on IGROV-1; 15.2 µM (inactive) in the assay on LOX IMVI. Moreover, the GI50 with Malme-3M was 23.7 µM (inactive); in the assay with NCI-H23, 18.9 µM (inactive); in the assay on NCI-H460, 16.7 µM (inactive); in the assay on OVCAR-8, 17.8 µM (inactive); in the assay on SF-539, 10.7 µM (inactive); in the assay on SK-MEL-28, 20.1 µM (inactive). Also, the GI50 is 15.7 µM (inactive) in the assay with SN12C, 17.7 µM (inactive) in the assay with SW-620 and 13.6 µM (inactive) with U-251.

With `Cc1c(N2CCOCC2)nc2ccc(Cl)cc2c1-c1ccccc1`, the GI50 was 43.8 µM (inactive) in the assay with A549; 40.9 µM (inactive) in the assay on HCC 2998; 56.9 µM (inactive) in the assay with HCT-116; 57.1 µM (inactive) with HT-29; > 100 µM (inactive) with IGROV-1; 49.4 µM (inactive) in the assay on LOX IMVI. The GI50 is 60.5 µM (inactive) in the assay with Malme-3M; 69.7 µM (inactive) with NCI-H23; 58.3 µM (inactive) with NCI-H460; > 100 µM (inactive) in the assay on OVCAR-8; 61.9 µM (inactive) in the assay on SF-539; > 100 µM (inactive) with SK-MEL-28. Besides, the GI50 in the assay on SK-OV-3 is > 100 µM (inactive); with SN12C, 47.8 µM (inactive); in the assay on SW-620, 66.2 µM (inactive); in the assay with U-251, 89.9 µM (inactive).

Regarding `COC(=O)/C(C#N)=C(\N)C(Cl)(Cl)Cl`, the GI50 in the assay on A549 is 3.33 µM (inactive); in the assay with HCC 2998 it was 3.06 µM (inactive); in the assay with HCT-116 it was 0.643 µM (active); with LOX IMVI, 2.65 µM (inactive); in the assay on NCI-H23, 4.82 µM (inactive); with NCI-H460 it was 4.33 µM (inactive). In addition, the GI50 in the assay on OVCAR-8 is 2.15 µM (inactive); in the assay with SK-MEL-28, 2 µM (inactive); in the assay with SK-OV-3, 1.81 µM (inactive); in the assay on SN12C it was 2.87 µM (inactive); in the assay on SW-620, 0.456 µM (active); with U-251 it was 16.5 µM (inactive).

For `CCCN1CN(C(C(=O)N[C@@H]2C(=O)N3C2SC(C)(C)C3C(=O)O)c2ccccc2)CSC1=S` (some centres not stated), the GI50 in the assay with A549 was > 100 µM (inactive); in the assay on HCT-116, 57.1 µM (inactive); with HT-29, 48.1 µM (inactive); in the assay on IGROV-1 it was > 100 µM (inactive); with LOX IMVI, 50.9 µM (inactive); with Malme-3M, > 100 µM (inactive). The GI50 in the assay on NCI-H23, with NCI-H460, in the assay with OVCAR-8, with SF-539, with SK-MEL-28 and in the assay with SK-OV-3 was > 100 µM (inactive) in each case. In addition, the GI50 in the assay with SN12C was > 100 µM (inactive); in the assay on SW-620, 16.4 µM (inactive); with U-251, > 100 µM (inactive).

For `CCOc1ccc(/C=C/C(=O)c2sc(NNC(C)=O)nc2C)cc1`, the GI50 with A549, with HCC 2998, with HT-29, with IGROV-1, in the assay on LOX IMVI and with Malme-3M was > 100 µM (inactive) throughout. For the same compound, the GI50 in the assay with NCI-H23, in the assay on NCI-H460, in the assay with OVCAR-8, in the assay on SF-539, with SK-MEL-28 and with SK-OV-3 was > 100 µM (inactive) throughout. The GI50 with SN12C, in the assay on SW-620 and with U-251 was > 100 µM (inactive) each time.

Consider `CCOC(=O)N[C@@H]1C(CC(=O)OC)O[C@H]2OC(C)(C)O[C@H]21` (some centres not stated), for which the GI50 with A549, in the assay on HCC 2998, in the assay with HT-29, with IGROV-1, with LOX IMVI and in the assay with Malme-3M was > 100 µM (inactive) each time. Also, the GI50 in the assay with NCI-H23, in the assay on NCI-H460, with SF-539, in the assay on SK-MEL-28, in the assay on SK-OV-3 and in the assay with SN12C was > 100 µM (inactive) throughout. Also, the GI50 with SW-620 and with U-251 was > 100 µM (inactive) each time.

The values are drawn from ChEMBL document CHEMBL1201862, “PubChem BioAssay data set” (2004).
